# Assay results: patent US9249132B2, “Substituted bicyclic aromatic compounds as S-nitrosoglutathione reductase inhibitors” (Nivalis Therapeutics, Inc., priority 2010, dated 2016)
# Tested on: dextran sodium sulfate (DSS)-induced IBD
# Experiment: Chronic treatment model of DSS-induced IBD
# Type: in vivo, mouse
# Text: Acute and chronic models of dextran sodium sulfate (DSS)-induced IBD in mice were used to explore efficacy of GSNORi against this disease. Acute and chronic DSS-induced IBD are widely used and well characterized models that induce pathological changes in the colon similar to those observed in the human disease. In these models and in human disease, epithelial cells within the crypts of the colon are disrupted, leading to dysfunction of the epithelial barrier and the ensuing tissue inflammation, edema, and ulceration. GSNORi therapy may benefit IBD by restoring s-nitrosoglutathione (GSNO) levels, and thus prevent or reverse the epithelial barrier dysfunction.
# Experimental IBD was induced by administration of DSS in the drinking water of male C57B1/6 mice (N=10 to 12 mice per group) for 6 consecutive days. GSNORi was dosed orally at doses of 10 mg/kg/day for 14 days starting one day after cessation of DSS exposure. Efficacy of GSNORi was assessed in a blinded fashion via endoscopy after 7 days and 14 days of GSNORi dosing and via histopathology after 14 days of GSNORi dosing using a five point scale ranging from a score=0 (normal tissue) through a score=4 (ulcerative tissue damage and marked pathological changes). Levels of circulating cytokines involved in inflammatory pathways were also assessed. The effect of GSNORi was compared to vehicle treated controls. The corticosteroid, prednisolone, was used as the positive control in this study and was administered daily at 3 mg/kg/day via oral dosing. Naïve mice (N=5) were also assessed as a normal tissue control.
# [1] = chronic model, oral 10 mg/kg/day for up to 14 consecutive days, treatment dosing regimen
structure (smiles),measurement,setting,value
"O=C(O)c1ccc(-c2ccc3cc(O)ccc3c2)c(Cl)c1 [Example 1, 3-chloro-4-(6-hydroxynaphthalen-2-yl)benzoic acid]",colon injury (in words),chronic DSS-induced IBD,attenuated colon injury
same,"decrease of percent of mice presenting with severe colon injury scores via endoscopy, of vehicle control",[1],50%
same,"decrease of percent of mice presenting with severe colon injury scores via histopathology, of vehicle control",[1],17%
